Laboratory results published in ChEMBL document CHEMBL1201862, “PubChem BioAssay data set” (2004).
Activity calls are given as the source filed them.

Tests used:
[1] = test system: Streptococcus sp. 'group A'; test: Streptococcus pyogenes SK(-)GAS viability under kanamycin – luminescence, BacTiterGlo, confirmation, counter-screen for streptokinase expression inhibitor project, dose response (AID 1900); assay type: functional, organism-based
Caspase-3 = target: T1, Caspase-3 (Homo sapiens, UniProt P42574); assay type: functional;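 also: Dose-response selectivity test against caspase-3 for candidate inhibitors of sentrin-specific proteases (SENPs)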
T1 sequence (P42574 whole entry): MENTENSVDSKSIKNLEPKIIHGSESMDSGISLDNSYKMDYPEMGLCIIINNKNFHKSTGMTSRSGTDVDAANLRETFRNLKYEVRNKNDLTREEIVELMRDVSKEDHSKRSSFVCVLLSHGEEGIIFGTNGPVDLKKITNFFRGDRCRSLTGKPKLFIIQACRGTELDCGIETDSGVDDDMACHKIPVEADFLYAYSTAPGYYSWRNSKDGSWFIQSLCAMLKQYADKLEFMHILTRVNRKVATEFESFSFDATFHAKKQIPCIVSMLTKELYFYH

[2] = target: Serine/threonine-protein kinase TBK1 (Homo sapiens, UniProt Q9UHD2); test: Navigating the Kinome. Panel member name: TBK1; assay type: functional
[3] = target: Fibroblast growth factor receptor 1 (Homo sapiens, UniProt P11362); assay type: functional
[4] = target: Casein kinase I isoform alpha (Homo sapiens, UniProt P48729); assay type: functional
Sequence of Casein kinase I isoform alpha (P48729 whole entry, canonical isoform): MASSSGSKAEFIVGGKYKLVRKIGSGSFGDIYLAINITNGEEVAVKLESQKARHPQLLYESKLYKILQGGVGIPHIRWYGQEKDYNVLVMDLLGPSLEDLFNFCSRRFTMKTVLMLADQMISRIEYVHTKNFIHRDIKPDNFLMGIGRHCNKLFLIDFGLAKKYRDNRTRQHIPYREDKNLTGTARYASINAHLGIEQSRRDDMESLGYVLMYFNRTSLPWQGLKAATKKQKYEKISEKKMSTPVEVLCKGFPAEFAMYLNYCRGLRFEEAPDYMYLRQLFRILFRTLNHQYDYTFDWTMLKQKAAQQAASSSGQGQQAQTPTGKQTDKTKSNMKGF

[5] = target: Mitogen-activated protein kinase 9 (Homo sapiens, UniProt P45984); assay type: functional;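 also: value from a kinome panel profiling assay, MAPK9 panel entry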
[6] = target: Serine/threonine-protein kinase TAO1 (Homo sapiens, UniProt Q7L7X3); assay type: functional
Sequence of Serine/threonine-protein kinase TAO1 (Q7L7X3 whole entry): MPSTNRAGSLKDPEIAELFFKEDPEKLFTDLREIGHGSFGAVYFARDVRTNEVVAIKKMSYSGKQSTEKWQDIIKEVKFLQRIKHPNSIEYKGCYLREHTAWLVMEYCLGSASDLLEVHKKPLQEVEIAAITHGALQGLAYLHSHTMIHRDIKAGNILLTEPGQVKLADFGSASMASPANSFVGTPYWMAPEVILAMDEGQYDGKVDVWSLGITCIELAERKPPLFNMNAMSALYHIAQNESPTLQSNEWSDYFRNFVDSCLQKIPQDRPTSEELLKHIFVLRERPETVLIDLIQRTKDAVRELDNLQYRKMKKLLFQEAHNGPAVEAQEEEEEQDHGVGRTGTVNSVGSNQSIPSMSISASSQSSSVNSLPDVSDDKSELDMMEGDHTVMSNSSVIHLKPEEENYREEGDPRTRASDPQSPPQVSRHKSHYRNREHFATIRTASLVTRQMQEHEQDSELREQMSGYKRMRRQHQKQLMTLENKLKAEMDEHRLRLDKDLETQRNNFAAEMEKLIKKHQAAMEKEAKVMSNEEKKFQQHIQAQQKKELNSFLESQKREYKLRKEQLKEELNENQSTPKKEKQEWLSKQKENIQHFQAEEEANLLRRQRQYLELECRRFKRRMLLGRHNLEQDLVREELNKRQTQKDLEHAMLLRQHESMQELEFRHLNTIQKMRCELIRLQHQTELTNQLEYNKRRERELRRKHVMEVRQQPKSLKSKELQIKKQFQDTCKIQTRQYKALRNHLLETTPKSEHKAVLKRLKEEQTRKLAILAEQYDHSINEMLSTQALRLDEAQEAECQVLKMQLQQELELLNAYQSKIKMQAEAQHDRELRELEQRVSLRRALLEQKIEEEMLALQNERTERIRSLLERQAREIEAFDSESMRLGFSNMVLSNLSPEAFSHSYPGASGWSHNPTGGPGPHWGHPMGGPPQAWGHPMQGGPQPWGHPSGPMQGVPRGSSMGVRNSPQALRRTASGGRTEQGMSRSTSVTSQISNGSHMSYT

Activated CDC42 kinase 1 = Activated CDC42 kinase 1 (Homo sapiens, UniProt Q07912); test: Navigating the Kinome. Panel member name: ACK1; assay type: functional
Sequence of Activated CDC42 kinase 1 (Q07912 whole entry): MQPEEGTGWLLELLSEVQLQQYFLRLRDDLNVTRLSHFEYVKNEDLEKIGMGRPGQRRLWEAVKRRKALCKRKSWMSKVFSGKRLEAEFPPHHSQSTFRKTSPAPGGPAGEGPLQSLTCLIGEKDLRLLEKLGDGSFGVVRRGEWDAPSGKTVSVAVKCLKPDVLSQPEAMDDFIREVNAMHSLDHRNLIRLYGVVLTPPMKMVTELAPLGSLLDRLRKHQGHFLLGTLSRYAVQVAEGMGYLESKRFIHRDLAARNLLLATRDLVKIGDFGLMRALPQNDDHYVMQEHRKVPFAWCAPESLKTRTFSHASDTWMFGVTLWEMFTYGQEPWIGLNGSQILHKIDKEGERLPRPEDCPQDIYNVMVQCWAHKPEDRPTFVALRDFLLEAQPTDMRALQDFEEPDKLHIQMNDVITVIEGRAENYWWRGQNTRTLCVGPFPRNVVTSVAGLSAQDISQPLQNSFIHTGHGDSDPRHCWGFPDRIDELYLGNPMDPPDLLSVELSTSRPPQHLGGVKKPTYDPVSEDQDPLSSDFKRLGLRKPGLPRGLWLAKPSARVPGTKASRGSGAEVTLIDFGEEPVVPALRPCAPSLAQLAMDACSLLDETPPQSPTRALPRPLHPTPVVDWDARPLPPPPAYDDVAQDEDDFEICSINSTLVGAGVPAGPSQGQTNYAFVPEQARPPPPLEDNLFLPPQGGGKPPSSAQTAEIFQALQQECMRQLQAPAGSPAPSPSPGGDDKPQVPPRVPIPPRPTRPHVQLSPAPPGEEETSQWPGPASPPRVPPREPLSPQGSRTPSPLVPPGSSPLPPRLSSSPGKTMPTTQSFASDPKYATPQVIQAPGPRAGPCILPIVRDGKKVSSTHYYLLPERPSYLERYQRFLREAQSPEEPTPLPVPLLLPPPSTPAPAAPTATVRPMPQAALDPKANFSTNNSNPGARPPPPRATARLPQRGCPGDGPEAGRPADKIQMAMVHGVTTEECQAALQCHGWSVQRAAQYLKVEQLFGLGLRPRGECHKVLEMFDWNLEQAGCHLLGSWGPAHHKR

[7] = target: Platelet-derived growth factor receptor beta (Homo sapiens, UniProt P09619); assay type: functional;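 also: value comes from a kinome panel, with PDGFRB tested as one panel member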
Sequence of Platelet-derived growth factor receptor beta (P09619 whole entry): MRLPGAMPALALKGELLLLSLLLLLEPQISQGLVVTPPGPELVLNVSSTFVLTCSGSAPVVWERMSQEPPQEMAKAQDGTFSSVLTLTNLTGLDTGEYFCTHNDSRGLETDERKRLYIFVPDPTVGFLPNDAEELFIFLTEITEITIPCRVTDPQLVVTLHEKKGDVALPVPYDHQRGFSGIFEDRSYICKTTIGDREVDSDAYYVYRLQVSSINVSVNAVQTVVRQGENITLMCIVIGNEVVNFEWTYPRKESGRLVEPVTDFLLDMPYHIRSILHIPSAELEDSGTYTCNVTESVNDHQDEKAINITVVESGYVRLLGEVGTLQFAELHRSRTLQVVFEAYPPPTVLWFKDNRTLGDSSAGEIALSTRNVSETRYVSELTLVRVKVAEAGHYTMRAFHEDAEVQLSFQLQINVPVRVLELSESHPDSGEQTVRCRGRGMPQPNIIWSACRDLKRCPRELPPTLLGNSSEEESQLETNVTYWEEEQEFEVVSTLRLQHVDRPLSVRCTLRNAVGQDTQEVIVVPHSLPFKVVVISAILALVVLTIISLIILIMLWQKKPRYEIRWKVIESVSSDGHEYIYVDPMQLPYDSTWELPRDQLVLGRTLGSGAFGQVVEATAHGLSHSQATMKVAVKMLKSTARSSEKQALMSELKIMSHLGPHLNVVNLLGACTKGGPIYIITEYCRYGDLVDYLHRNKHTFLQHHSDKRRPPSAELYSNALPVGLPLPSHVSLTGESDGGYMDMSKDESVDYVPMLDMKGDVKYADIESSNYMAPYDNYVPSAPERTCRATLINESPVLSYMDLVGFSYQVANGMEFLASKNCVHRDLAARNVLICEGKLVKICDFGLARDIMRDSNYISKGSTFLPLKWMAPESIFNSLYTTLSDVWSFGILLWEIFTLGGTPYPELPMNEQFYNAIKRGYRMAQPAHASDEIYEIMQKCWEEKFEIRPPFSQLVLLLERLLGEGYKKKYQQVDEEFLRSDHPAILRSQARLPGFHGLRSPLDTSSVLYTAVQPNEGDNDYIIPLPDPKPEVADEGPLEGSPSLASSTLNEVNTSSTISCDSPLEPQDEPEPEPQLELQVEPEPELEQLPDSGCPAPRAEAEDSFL

[8] = target: Cyclin-dependent kinase 5 (Homo sapiens, UniProt Q00535); assay type: functional;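 also: CDK5 measured as one member of a kinase profiling panel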
Sequence of Cyclin-dependent kinase 5 (Q00535 whole entry): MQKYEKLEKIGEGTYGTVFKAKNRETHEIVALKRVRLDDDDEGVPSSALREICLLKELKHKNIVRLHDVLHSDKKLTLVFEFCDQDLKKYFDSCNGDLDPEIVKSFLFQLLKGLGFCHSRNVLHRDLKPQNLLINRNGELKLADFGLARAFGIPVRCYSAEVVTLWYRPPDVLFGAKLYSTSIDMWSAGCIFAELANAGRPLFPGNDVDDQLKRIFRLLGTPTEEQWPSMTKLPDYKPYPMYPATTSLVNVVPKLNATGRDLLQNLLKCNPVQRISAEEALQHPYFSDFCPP

Aurora kinase B = Aurora kinase B (Homo sapiens, UniProt Q96GD4); assay type: functional
[9] = target: Mitogen-activated protein kinase kinase kinase kinase 4 (Homo sapiens, UniProt O95819); assay type: functional
Sequence of Mitogen-activated protein kinase kinase kinase kinase 4 (O95819 whole entry): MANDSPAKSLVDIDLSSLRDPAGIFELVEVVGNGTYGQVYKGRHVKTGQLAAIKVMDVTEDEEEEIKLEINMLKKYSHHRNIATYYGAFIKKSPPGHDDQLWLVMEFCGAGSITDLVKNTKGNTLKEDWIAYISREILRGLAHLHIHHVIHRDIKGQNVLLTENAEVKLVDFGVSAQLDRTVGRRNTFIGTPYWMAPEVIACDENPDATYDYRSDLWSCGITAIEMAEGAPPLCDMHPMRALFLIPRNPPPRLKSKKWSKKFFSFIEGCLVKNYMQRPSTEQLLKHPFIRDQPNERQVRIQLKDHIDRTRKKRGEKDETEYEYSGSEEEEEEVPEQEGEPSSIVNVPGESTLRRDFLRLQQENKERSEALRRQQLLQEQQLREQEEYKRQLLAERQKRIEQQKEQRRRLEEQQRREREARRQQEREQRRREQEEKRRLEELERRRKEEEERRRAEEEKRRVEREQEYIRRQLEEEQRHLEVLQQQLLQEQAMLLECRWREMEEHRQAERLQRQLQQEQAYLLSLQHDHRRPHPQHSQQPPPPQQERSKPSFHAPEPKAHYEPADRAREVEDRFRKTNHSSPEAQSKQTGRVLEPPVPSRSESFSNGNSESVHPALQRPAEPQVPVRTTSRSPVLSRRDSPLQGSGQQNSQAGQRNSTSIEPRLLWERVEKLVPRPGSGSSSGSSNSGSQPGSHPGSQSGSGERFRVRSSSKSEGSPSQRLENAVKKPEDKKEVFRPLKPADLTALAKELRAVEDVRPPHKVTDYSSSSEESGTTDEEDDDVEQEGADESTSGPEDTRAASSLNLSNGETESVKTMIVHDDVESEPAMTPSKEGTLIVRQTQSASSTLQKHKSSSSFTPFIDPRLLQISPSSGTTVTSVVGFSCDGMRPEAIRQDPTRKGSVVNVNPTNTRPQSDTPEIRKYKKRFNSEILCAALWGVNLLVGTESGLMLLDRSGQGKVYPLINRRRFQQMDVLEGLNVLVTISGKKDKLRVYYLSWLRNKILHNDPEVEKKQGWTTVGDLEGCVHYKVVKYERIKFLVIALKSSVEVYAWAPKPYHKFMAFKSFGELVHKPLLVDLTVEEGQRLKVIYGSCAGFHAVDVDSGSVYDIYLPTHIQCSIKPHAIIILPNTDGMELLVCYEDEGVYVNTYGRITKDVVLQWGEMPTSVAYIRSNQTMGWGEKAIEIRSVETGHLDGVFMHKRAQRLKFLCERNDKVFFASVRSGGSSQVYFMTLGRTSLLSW

[10] = target: Macrophage-stimulating protein receptor (Homo sapiens, UniProt Q04912); test: Navigating the Kinome. Panel member name: MST1R; assay type: functional
[11] = target: Mitogen-activated protein kinase 14 (Homo sapiens, UniProt Q16539); assay type: functional;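 also: part of a kinome-wide panel, MAPK14 entry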

In the case of `CN1CCN(C(c2ccc(C(F)(F)F)cc2)c2cc(Cl)c3cccnc3c2O)CC1` (centres undefined), the EC50 [1] is reported as 0.558 µM (active).
With `NC(=O)c1c(NC(=O)c2cc3ccccc3o2)sc2c1CCC2` the IC50 (Caspase-3) was 15.1 µM (active).
In the case of `O=C(NC(CCO)c1ccccc1)c1ccc(-c2ccncc2)cc1` (centres undefined), the Ki [2] is reported as > 3.16 µM (inactive), the Ki [3] is reported as > 3.98 µM (inactive) and the Ki [4] is reported as > 3.98 µM (inactive). The Ki [5] was > 3.98 µM (inactive), the Ki [6] was > 6.31 µM (inactive) and the Ki (Activated CDC42 kinase 1) was > 3.98 µM (inactive). The Ki [7] was > 2 µM (inactive), the Ki [8] was > 3.16 µM (inactive) and the Ki (Aurora kinase B) was > 3.98 µM (inactive). The Ki [9] was > 5.01 µM (inactive), the Ki [10] was > 3.98 µM (inactive) and the Ki [11] was > 3.98 µM (inactive).
